Reference: US10689354B2, “Aminoazole derivative” (Teijin Pharma Limited, priority 2015, dated 2020)

Columns and labels:
[1] = biological target: T1, androgen receptor (AR-LBD) (Rattus norvegicus, UniProt P15207); assay: Evaluation of androgen receptor affinity (PolarScreen Androgen Receptor Competitor Assay Kit, Red; fluorescence polarization); conditions: 22° C. for 5 hours, relative to binding rate of 1 μM DHT, read-out: AR affinity (pEC50) (converted)
T1 construct: 5 μL of 2×AR-LBD/Fluoromone AL Red Complex contained in the kit; purchased Invitrogen
T1 sequence (P15207 651-882 limits assumed): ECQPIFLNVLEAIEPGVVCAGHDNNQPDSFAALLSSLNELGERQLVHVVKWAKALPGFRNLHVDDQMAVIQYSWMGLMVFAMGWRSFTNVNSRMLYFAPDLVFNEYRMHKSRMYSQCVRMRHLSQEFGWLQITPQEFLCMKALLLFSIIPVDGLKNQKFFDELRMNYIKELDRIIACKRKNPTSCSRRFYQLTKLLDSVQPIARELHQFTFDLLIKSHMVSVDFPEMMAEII
Procedure, shortened: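 pEC50 values reflect tracer displacement from AR-LBD (Fluoromone AL Red complex) measured by fluorescence polarization after 5 h at 22° C, normalized to 1 μM DHT and fitted with a 4-parameter model.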

human androgen receptor = biological target: T2, human androgen receptor (Homo sapiens, UniProt P10275); assay: Reporter assay of an androgen receptor responsive sequence (luciferase, transiently transfected HEK293 cells); assay type: cell-based; conditions: 24 hours incubation, relative to activity of 100 nM DHT, read-out: AR transcriptive activity (pEC50) (converted)
T2 construct: expressed in transfected cells; host or cells: HEK293
T2 sequence (P10275 1-920): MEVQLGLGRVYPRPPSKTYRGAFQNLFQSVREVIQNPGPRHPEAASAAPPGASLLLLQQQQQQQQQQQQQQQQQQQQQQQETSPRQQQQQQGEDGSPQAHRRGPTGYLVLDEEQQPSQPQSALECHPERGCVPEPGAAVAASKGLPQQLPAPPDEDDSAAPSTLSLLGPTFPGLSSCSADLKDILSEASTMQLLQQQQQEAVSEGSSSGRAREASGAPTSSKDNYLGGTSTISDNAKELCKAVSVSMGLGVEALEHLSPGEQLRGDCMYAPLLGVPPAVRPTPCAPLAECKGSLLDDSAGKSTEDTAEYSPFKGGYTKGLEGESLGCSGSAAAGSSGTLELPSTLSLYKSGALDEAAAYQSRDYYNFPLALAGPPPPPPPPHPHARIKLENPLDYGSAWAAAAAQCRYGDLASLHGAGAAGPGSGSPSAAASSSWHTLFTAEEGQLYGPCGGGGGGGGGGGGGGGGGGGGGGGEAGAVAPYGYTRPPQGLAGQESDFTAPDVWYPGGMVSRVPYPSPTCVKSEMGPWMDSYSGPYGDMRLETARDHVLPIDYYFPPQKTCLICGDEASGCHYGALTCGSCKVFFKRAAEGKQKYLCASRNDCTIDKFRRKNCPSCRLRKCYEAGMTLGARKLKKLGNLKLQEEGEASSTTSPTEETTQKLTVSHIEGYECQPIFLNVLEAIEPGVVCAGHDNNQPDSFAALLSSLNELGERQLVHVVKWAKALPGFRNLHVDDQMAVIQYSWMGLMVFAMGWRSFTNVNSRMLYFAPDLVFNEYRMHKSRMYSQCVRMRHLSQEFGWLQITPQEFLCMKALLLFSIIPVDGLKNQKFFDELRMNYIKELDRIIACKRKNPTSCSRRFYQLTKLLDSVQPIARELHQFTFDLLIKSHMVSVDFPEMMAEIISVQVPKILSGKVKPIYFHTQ
Procedure, shortened: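 HEK293 cells transiently transfected for 3 h with ARE-firefly luciferase, full-length human AR and TK-Renilla plasmids, then exposed to compound for 24 h at 37 °C in 5% charcoal-treated FBS/DMEM. Dual-Glo luminescence read; pEC50 from 4-parameter fit relative to 100 nM DHT.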

Structure (SMILES) | EC50 [1] [nM] | EC50 (human androgen receptor) [nM]
Cc1oc(N(CCc2ccc(OC(F)(F)F)cc2)Cc2ccc(C(F)(F)F)nc2)nc1C(=O)NS(C)(=O)=O [Compound 562, 5-methyl-N-methylsulfonyl-2-[2-[4-(trifluoromethoxy)phenyl]ethyl-[[6-(trifluoromethyl)-3-pyridyl]methyl]amino]oxazole-4-carboxamide] | 39.8 | 794
COCCCS(=O)(=O)NC(=O)c1nc(N(CCc2ccc(OC(F)(F)F)cc2)Cc2nc(C3CC3)no2)oc1C [Compound 563, 2-[(3-cyclopropyl-1,2,4-oxadiazol-5-yl)methyl-[2-[4-(trifluoromethoxy)phenyl]ethyl]amino]-N-(3-methoxypropylsulfonyl)-5-methyl-oxazole-4-carboxamide] | 79.4 | 1580
COCCCS(=O)(=O)NC(=O)c1nc(N(CCc2ccc(OC(F)(F)F)cc2)Cc2ccc(Cl)cn2)oc1C [Compound 564, 2-[(5-chloro-2-pyridyl)methyl-[2-[4-(trifluoromethoxy)phenyl]ethyl]amino]-N-(3-methoxypropylsulfonyl)-5-methyl-oxazole-4-carboxamide] | 158 | > 10000
COCCCS(=O)(=O)NC(=O)c1nc(N(CCc2ccc(OC(F)(F)F)cc2)Cc2ccc(C(F)(F)F)nc2)oc1C [Compound 565, N-(3-methoxypropylsulfonyl)-5-methyl-2-[2-[4-(trifluoromethoxy)phenyl]ethyl-[[6-(trifluoromethyl)-3-pyridyl]methyl]amino]oxazole-4-carboxamide] | 63.1 | 2000
COCCOc1ccc(CN(c2ccc(C#N)cc2)c2nc(C(=O)NS(C)(=O)=O)c(C)s2)cc1 [Compound 566, 2-[4-cyano-N-[[4-(2-methoxyethoxy)phenyl]methyl]anilino]-5-methyl-N-methylsulfonyl-thiazole-4-carboxamide] | 200 | 1580
Cc1sc(N(Cc2ccc(OCc3cccnc3)cc2)c2ccc(C#N)cc2)nc1C(=O)NS(C)(=O)=O [Compound 567, 2-[4-cyano-N-[[4-(3-pyridylmethoxy)phenyl]methyl]anilino]-5-methyl-N-methylsulfonyl-thiazole-4-carboxamide] | 100 | > 10000
Cc1sc(N(Cc2ccc(OCc3ccccn3)cc2)c2ccc(C#N)cc2)nc1C(=O)NS(C)(=O)=O [Compound 568, 2-[4-cyano-N-[[4-(2-pyridylmethoxy)phenyl]methyl]anilino]-5-methyl-N-methylsulfonyl-thiazole-4-carboxamide] | 158 | 794
Cc1sc(N(Cc2ccc(OCc3ccncc3)cc2)c2ccc(C#N)cc2)nc1C(=O)NS(C)(=O)=O [Compound 571, 2-[4-cyano-N-[[4-(4-pyridylmethoxy)phenyl]methyl]anilino]-5-methyl-N-methylsulfonyl-thiazole-4-carboxamide] | 158 | > 10000
Cc1sc(N(Cc2ccc(OCC3CCOCC3)cc2)c2ccc(C#N)cc2)nc1C(=O)NS(C)(=O)=O [Compound 576, 2-[4-cyano-N-[[4-(tetrahydropyran-4-ylmethoxy)phenyl]methyl]anilino]-5-methyl-N-methylsulfonyl-thiazole-4-carboxamide] | 63.1 | 1260
Cc1sc(N(Cc2ccc(OCC(F)F)cc2)c2ccc(C#N)cc2)nc1C(=O)NS(C)(=O)=O [Compound 577, 2-[4-cyano-N-[[4-(2,2-difluoroethoxy)phenyl]methyl]anilino]-5-methyl-N-methylsulfonyl-thiazole-4-carboxamide] | 63.1 | 501
Cc1sc(N(Cc2ccc(OCCCO)cc2)c2ccc(C#N)cc2)nc1C(=O)NS(C)(=O)=O [Compound 579, 2-[4-cyano-N-[[4-(3-hydroxypropoxy)phenyl]methyl]anilino]-5-methyl-N-methylsulfonyl-thiazole-4-carboxamide] | 200 | 7940
